Measurements from PMC7265341, “Quantifying CDK inhibitor selectivity in live cells” (Nature Communications, 2020).
Where “and” joins values, the source holds several entries; their conditions need not be identical. Equal entries are not always repeated. Where two headings read alike, the source gives them in different places.

What was measured:
Type in all cases: binding
[1] = target: CDK14/Cyclin Y (Homo sapiens, UniProt O94921); experiment: NanoBRET live-cell target engagement, CDK14-NanoLuc/Cyclin Y in HEK-293; details: for inhibition at 10 µM: read-out: CDK14/Y Inhibition at 10µM (%), 10µM
[2] = target: CDK2 (Homo sapiens, UniProt P24941); experiment: Intracellular residence time by cellular washout, CDK2; details: for CDK2 occupancy after compound washout (%): Panel B;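 as to all read-outs here: NanoBRET live-cell washout assay after 2 h compound pretreatment at 37 °C, rising energy-transfer probe signal tracks loss of CDK2 engagement, compared against DMSO vehicle cells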
[3] = target: CDK7 (Homo sapiens, UniProt P50613); experiment: NanoBRET live-cell target engagement, NanoLuc-CDK7 in HEK-293; details: for inhibition at 10 µM: read-out: CDK7 Inhibition at 10µM (%); for CDK7 Occupancy (%): Panel A
[4] = target: CDK6 (Homo sapiens, UniProt Q00534); experiment: Real-time analysis of engagement (kobs, IC50 vs time) in live cells, CDK6; details: real-time BRET, 25 °C; response to reviewers
Protocol: CDK2/Cyclin E1 complex was measured in the donor NanoBRET channel (using the standard 450 nm bandpass filter on the Glomax Discover plate reader). Ternary complex was measured in the presence […]
the acceptor NanoBRET channel (using the standard 600 nm longpass filter on the Glomax Discover plate reader). Total LgBiT expression level was determined in the presence of a saturating concentration […]
mg/mL digitonin (as a permeabilization agent). […]
respectively, at probe concentrations identical to those described for steady state analysis of target engagement. Cells were pre-equilibrated with energy transfer probe for 40 min prior to addition of […]
intervals at 25 °C (temperature reduced to avoid evaporation of cell culture medium). To quantify […]
vs time. Apparent association rate was also plotted as k obs vs [RGB286638], where kobs was determined using the one phase association equation (Supplementary Equation 2) in graphpad prism.
Y=Y0 + (Plateau-Y0)*(1-e-K*X) (2) where Y = mBRET ratio, X = time, and K = the observed rate constant ( kobs). Both analyses support […]
Generation of endogenously edited CDK-HiBiT cell lines and target engagement analysis at endogenous protein levels. HEK293 cells were edited to express HiBiT fused to the N -terminus of CDK9 or the C-terminus of CDK16, as described previously 3. For CDK9, the sequence of the guide RNA was […]

CDK7, sequence (P50613 whole entry): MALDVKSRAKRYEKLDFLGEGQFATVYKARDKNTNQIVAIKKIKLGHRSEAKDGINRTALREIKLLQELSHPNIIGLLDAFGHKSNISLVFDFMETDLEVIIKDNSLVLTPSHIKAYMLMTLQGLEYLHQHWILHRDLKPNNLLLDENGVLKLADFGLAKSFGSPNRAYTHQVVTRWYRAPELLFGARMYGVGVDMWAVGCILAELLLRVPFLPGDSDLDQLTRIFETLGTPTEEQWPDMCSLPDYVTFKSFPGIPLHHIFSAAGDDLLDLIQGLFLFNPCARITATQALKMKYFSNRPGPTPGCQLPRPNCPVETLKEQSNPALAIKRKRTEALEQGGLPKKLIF
CDK14/Cyclin Y, sequence (O94921 whole entry): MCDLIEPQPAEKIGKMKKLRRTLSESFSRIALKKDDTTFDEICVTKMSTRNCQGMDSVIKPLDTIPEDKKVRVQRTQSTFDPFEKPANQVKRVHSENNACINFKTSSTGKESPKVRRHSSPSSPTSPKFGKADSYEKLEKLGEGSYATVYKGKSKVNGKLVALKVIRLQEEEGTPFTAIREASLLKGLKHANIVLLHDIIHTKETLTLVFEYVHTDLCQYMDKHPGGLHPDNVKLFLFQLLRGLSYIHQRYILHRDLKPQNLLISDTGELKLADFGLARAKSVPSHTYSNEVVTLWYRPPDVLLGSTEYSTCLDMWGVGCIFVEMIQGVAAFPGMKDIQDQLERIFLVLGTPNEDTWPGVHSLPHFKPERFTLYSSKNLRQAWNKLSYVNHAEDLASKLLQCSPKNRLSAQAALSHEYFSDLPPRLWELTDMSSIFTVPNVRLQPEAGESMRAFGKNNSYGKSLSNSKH
CDK14/Cyclin Y, sequence (Q8ND76 whole entry partner): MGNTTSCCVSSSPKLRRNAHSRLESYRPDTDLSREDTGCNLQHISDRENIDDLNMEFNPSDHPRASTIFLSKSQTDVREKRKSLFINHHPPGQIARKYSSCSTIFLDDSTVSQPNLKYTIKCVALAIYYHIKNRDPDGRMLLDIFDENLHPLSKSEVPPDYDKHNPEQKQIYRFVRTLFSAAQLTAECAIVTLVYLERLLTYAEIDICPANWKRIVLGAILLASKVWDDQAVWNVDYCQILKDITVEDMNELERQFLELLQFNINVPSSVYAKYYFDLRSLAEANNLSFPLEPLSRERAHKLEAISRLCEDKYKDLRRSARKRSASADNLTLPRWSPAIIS
CDK6, sequence (Q00534 whole entry): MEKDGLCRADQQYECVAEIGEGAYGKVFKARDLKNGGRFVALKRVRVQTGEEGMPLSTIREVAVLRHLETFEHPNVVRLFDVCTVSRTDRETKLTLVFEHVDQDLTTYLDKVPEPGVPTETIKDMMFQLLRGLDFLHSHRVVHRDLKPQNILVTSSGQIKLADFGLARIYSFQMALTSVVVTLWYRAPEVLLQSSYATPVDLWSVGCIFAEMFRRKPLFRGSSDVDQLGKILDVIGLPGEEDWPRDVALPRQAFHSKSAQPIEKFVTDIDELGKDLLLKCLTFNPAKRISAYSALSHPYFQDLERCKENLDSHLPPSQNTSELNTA
CDK6, sequence (P24385 whole entry partner): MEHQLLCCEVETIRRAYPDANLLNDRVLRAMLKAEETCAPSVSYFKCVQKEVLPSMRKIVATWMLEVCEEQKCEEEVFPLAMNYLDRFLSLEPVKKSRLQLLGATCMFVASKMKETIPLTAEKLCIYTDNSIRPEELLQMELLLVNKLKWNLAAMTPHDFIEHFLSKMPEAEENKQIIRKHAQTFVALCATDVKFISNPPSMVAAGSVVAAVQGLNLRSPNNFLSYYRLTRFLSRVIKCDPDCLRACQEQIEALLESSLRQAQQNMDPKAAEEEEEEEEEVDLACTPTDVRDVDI

With `COCCN1CCN(Cc2ccc(-c3n[nH]c4c3C(=O)c3c(NC(=O)NN5CCOCC5)cccc3-4)cc2)CC1` [RGB286638] the IC50 ([1]; average (± SEM where n=3), read-out: CDK14/Y IC50) was 0.031 µM, the IC50 ([1]; independent experiment 1, read-out: CDK14/Y IC50) was 0.03 µM and the IC50 ([1]; independent experiment 2, read-out: CDK14/Y IC50) was 0.031 µM. For the same molecule, the IC50 ([1]; live HEK-293, 2 h, mean ± S.E.M. (n=3) or mean (n=2), read-out: IC50 for CDK/cyclin complexes, CDK14/Y) was 0.031 µM, the inhibition at 10 µM ([1]; average of experiments) was 95.9% and the inhibition at 10 µM ([1]; independent experiment 1) was 94.1%. For the same molecule, the inhibition at 10 µM ([1]; independent experiment 2) was 97.8%, the “CDK2 occupancy after compound washout (%)” value (“CDK2 occupancy … (%)” for short) ([2]; Time (Min) 0) was 86.242 and 90.073 and 94.3307 and the “CDK2 occupancy … (%)” value ([2]; Time (Min) 2.97013) was 79.5117 and 80.9002 and 88.1102. The “CDK2 occupancy … (%)” value ([2]; Time (Min) 5.97045) was 73.673 and 73.2847 and 82.0472, the “CDK2 occupancy … (%)” value ([2]; Time (Min) 8.97078) was 68.5138 and 66.4964 and 75.5906 and the “CDK2 occupancy … (%)” value ([2]; Time (Min) 11.9714) was 64.0977 and 61.0706 and 70.5249. The “CDK2 occupancy … (%)” value ([2]; Time (Min) 14.9718) was 59.9363 and 55.5961 and 65.5381, the “CDK2 occupancy … (%)” value ([2]; Time (Min) 17.9723) was 56.1571 and 50.7299 and 61.601 and the “CDK2 occupancy … (%)” value ([2]; Time (Min) 20.9723) was 52.6752 and 47.2263 and 57.3753. For the same molecule, the “CDK2 occupancy … (%)” value ([2]; Time (Min) 23.9731) was 49.9788 and 43.4307 and 53.9895, the “CDK2 occupancy … (%)” value ([2]; Time (Min) 26.9737) was 47.0913 and 40.219 and 51.2336 and the “CDK2 occupancy … (%)” value ([2]; Time (Min) 29.9742) was 44.5011 and 36.91 and 47.9003. For the same molecule, the “CDK2 occupancy … (%)” value ([2]; Time (Min) 32.9743, listed as RGB-286638) was 42.1444 and 34.1363 and 45.2756, the “CDK2 occupancy … (%)” value ([2]; Time (Min) 35.9749) was 39.724 and 31.4599 and 43.3596 and the “CDK2 occupancy … (%)” value ([2]; Time (Min) 38.9753) was 37.5584 and 29.5864 and 40.3675. The “CDK2 occupancy … (%)” value ([2]; Time (Min) 41.9753) was 36.0722 and 27.129 and 39.4488, the “CDK2 occupancy … (%)” value ([2]; Time (Min) 44.9758) was 33.3121 and 25.1582 and 36.6667 and the “CDK2 occupancy … (%)” value ([2]; Time (Min) 47.9761) was 31.6136 and 23.6253 and 35.2756. The “CDK2 occupancy … (%)” value ([2]; Time (Min) 50.9766) was 29.9788 and 21.8978 and 32.9134, the “CDK2 occupancy … (%)” value ([2]; Time (Min) 53.9771) was 27.983 and 20.1946 and 30.7874 and the “CDK2 occupancy … (%)” value ([2]; Time (Min) 56.9772) was 27.3885 and 18.0049 and 30.0525. For the same molecule, the “CDK2 occupancy … (%)” value ([2]; Time (Min) 59.9777) was 25.9023 and 17.2749 and 28.5564, the “CDK2 occupancy … (%)” value ([2]; Time (Min) 62.9781) was 24.4161 and 15.8151 and 27.3753 and the “CDK2 occupancy … (%)” value ([2]; Time (Min) 65.9785) was 22.9299 and 14.3552 and 26.2992. For the same molecule, the “CDK2 occupancy … (%)” value ([2]; Time (Min) 68.9792) was 21.4437 and 13.6253 and 25.1706, the “CDK2 occupancy … (%)” value ([2]; Time (Min) 71.9792) was 20.5945 and 12.1655 and 24.252 and the “CDK2 occupancy after 2 h of analysis following compound washout” value ([2]; live cells, probe 1 at 1 µM) was “fully dissociated”. For the same molecule, the inhibition at 10 µM ([3]; average of experiments) was 93.9%, the inhibition at 10 µM ([3]; independent experiment 1) was 91% and the inhibition at 10 µM ([3]; independent experiment 2) was 96.7%. The “CDK7 Occupancy (%)” value ([3]; LOG10([RGB-286638]) 0.045757 LOG10(µM)) was 97.0886%, the “CDK7 Occupancy (%)” value ([3]; LOG10([RGB-286638]) 0.522879 LOG10(µM)) was 96.5823% and the “CDK7 Occupancy (%)” value ([3]; LOG10([RGB-286638]) 1 LOG10(µM)) was 97.4684%. The “CDK7 Occupancy (%)” value ([3]; LOG10([RGB-286638]) -0.43136 LOG10(µM)) was 93.9241%, the “CDK7 Occupancy (%)” value ([3]; LOG10([RGB-286638]) -0.90849 LOG10(µM)) was 87.0886% and the “CDK7 Occupancy (%)” value ([3]; LOG10([RGB-286638]) -1.38561 LOG10(µM)) was 72.7848%. The “CDK7 Occupancy (%)” value ([3]; LOG10([RGB-286638]) -1.86273 LOG10(µM)) was 53.2911%, the “CDK7 Occupancy (%)” value ([3]; LOG10([RGB-286638]) -2.33985 LOG10(µM)) was 31.2658% and the “CDK7 Occupancy (%)” value ([3]; LOG10([RGB-286638]) -2.81697 LOG10(µM)) was 12.6582%. The “CDK7 Occupancy (%)” value ([3]; LOG10([RGB-286638]) -3.29409 LOG10(µM)) was 6.329%, the “CDK7 Occupancy (%)” value ([3]; LOG10([RGB-286638]) -3.77121 LOG10(µM)) was 1.266% and the IC50 ([3]; average (± SEM where n=3), read-out: CDK7 IC50) was 0.016 ± 0.005 µM. The IC50 ([3]; independent experiment 1, read-out: CDK7 IC50) was 0.011 µM, the IC50 ([3]; independent experiment 2, read-out: CDK7 IC50) was 0.011 µM and the IC50 ([3]; independent experiment 3, read-out: CDK7 IC50) was 0.026 µM. The IC50 ([3]; live HEK-293, 2 h, mean ± S.E.M. (n=3) or mean (n=2), read-out: IC50 for CDK/cyclin complexes, CDK7) was 0.012 to 0.016 µM and the “CDK6 off rate from kobs values” [4] was greater than 300 min.
